Reference: US7074459B2, “Method for preserving wood” (priority 2003, dated 2006)

What was measured:
Assay type in all cases: cell-based
[1] = tested on: Escherichia coli (gram negative); test: Bacteriostatic activity in Oxoid No. 2 nutrient broth; settings: 0.1 wt. %, 48 hours incubation
Protocol: (§1) The bacteriostatic activity of several complexes was investigated by testing at 0.1 wt. % using Oxoid No. 2 nutrient broth and inoculating the broth with 1 ml of a 24 hour broth culture of the test organisms. After incubation at the optimum growth temperature of the organism for 48 hours.
(§2) The organisms tested were:
Escherichia coli (gram negative)

[2] = tested on: Pseudomonas aeruginosa (gram negative); test: as above; settings: 0.1 wt. %, 48 hours incubation
Protocol: as §1, §2
Pseudomonas aeruginosa (gram negative)

[3] = tested on: Staphylococcus aureous (gram positive); test: as above; settings: 0.1 wt. %, 48 hours incubation
Protocol: as §1, §2
Staphylococcus aureous (gram positive)

[4] = tested on: brown-rot fungus Gloeophyllum trabeum; test: ASTM 1413 standard soil block test, 12 weeks; settings: 1% treatment, unleached, 12-week soil block test with G. trabeum
Protocol: The following five wood preservatives were prepared for testing according to ASTM Stanard D 1413. • 1. chlorhexidine (CH)—Omadine^a 1:2 complex • 2. Polyhexamethylene biguanide—Omadine 1:1 complex • 3. Bardac^b 2250—Omadine 1:1 complex • 4. Tetrakis(hydroxylmethyl)phosphonium 0 Omadine 1:1 complex • 5. B-55^c polyionene—Omadine 1:2 complex • a) Omadine is 2-mercapto pyridine N-oxide • b) Barclac 2250 is […] • c) […] is poly(oxyethylene(dimethyliminio)ethylene(dimethylimino)ethylene dichloride Biological Evaluation
The ASTM 1413 standard soil block test was performed (ASTM 1999) Five soil bottles of each treatment and solution concentration (plus untreated controls) were exposed to the brown-rot fungus Gloeophyllum trabeum for 12 weeks. Two soil bottles with no fungus were also run to monitor any leaching of chemicals. Specimens were removed from test after 12 weeks exposure and conditioned until constant weight in the conditioning room (27° C./30°RH). The extent of decay was determined by weight loss.

Compound | bacteriostatic activity [1] | bacteriostatic activity [2] | bacteriostatic activity [3] | Wt. Loss % (Fungus) [4] [%]
N=C(NCCCCCCNC(=N)NC(=N)Nc1ccc(Cl)cc1)NC(=N)Nc1ccc(Cl)cc1.On1ccccc1=S.On1ccccc1=S [Compound 6, chlorhexidinium di(2-mercapto-pyridine N-oxides)] | bacteriostatic | bacteriostatic | bacteriostatic | 1.57
OC[P+](CO)(CO)CO.[O-][n+]1ccccc1[S-] [Compound 8] | bacteriostatic | bacteriostatic | bacteriostatic | −0.07
N=C(NCCCCCCNC(=N)NC(=N)Nc1ccc(Cl)cc1)NC(=N)Nc1ccc(Cl)cc1.Oc1cc(Cl)ccc1Oc1ccc(Cl)cc1Cl.Oc1cc(Cl)ccc1Oc1ccc(Cl)cc1Cl [Compound 10, chlorhexidinium di (triclosante)] | bacteriostatic | bacteriostatic | bacteriostatic | 
didecyldimethyl ammonium 2-mercapto-benzothiazole [Compound 5] | bacteriostatic | bacteriostatic | bacteriostatic | 
